Test results as given in publication PMC7434893 (British Journal of Cancer, 2020).
Read-outs that look alike come from different tables or passages of the source.

Assays:
[1] = system: AN3 CA; assay: 8-day growth inhibition; format: cell-based; details: Endometrial, 8-day assay
[2] = system: NCI-H82; assay: 8-day growth inhibition; format: cell-based; details: SCLC, NCI-H82, 8-day assay
[3] = system: HEC-59; assay: 8-day growth inhibition; format: cell-based; details: Endometrial, HEC-59, 8-day assay

Work on `O=c1[nH]nc2c3c(cccc13)N=C(CN1Cc3ccccc3C1)N2` [E7449] yielded an IC50 [1] of 1490 nM, an IC50 [2] of 470 nM and an IC50 [3] of 2440 nM. For the same molecule, the “Abdominal pain, treatment-related AE” value (50 mg (n = 3)) was 0%, the “Anaemia, treatment-related AE” value (50 mg (n = 3)) was 33.3% and the “Chromaturia, treatment-related AE” value (50 mg (n = 3)) was 0%. For the same molecule, the “Constipation, treatment-related AE” value (50 mg (n = 3)) was 33.3%, the “Decreased appetite, treatment-related AE” value (50 mg (n = 3)) was 33.3% and the “Depression, treatment-related AE” value (50 mg (n = 3)) was 0%. The “Diarrhoea, treatment-related AE” value (50 mg (n = 3)) was 33.3%, the “Dizziness, treatment-related AE” value (50 mg (n = 3)) was 0% and the “Dry skin, treatment-related AE” value (50 mg (n = 3)) was 0%. For the same molecule, the “Dysgeusia, treatment-related AE” value (50 mg (n = 3)) was 0%, the “Erythematous rash, treatment-related AE” value (50 mg (n = 3)) was 0% and the “Fatigue, treatment-related AE” value (50 mg (n = 3)) was 33.3%. The “Increased blood alkaline phosphatase, treatment-related AE” value (“Increased blood alkaline phosphatase” below) (50 mg (n = 3)) was 0%, the “Maculopapular rash, treatment-related AE” value (50 mg (n = 3)) was 0% and the “Nausea, treatment-related AE” value (50 mg (n = 3)) was 33.3%. For the same molecule, the “Onycholysis, treatment-related AE” value (50 mg (n = 3)) was 0%, the “Periorbital oedema, treatment-related AE” value (50 mg (n = 3)) was 0% and the “Photosensitivity reaction, treatment-related AE” value (“Photosensitivity reaction” for short) (50 mg (n = 3)) was 33.3%. For the same molecule, the “Pruritus, treatment-related AE” value (50 mg (n = 3)) was 0%, the “Skin hyperpigmentation, treatment-related AE” value (shortened to “Skin hyperpigmentation”) (50 mg (n = 3)) was 0% and the “Vomiting, treatment-related AE” value (50 mg (n = 3)) was 33.3%. The “Patients with dose-limiting toxicity, n (%)” value (50 mg cohort, 3 evaluable) was 0 n (%), the “Abdominal pain, treatment-related AE” value (100 mg (n = 3)) was 33.3% and the “Anaemia, treatment-related AE” value (100 mg (n = 3)) was 0%. The “Chromaturia, treatment-related AE” value (100 mg (n = 3)) was 0%, the “Constipation, treatment-related AE” value (100 mg (n = 3)) was 33.3% and the “Decreased appetite, treatment-related AE” value (100 mg (n = 3)) was 0%. For the same molecule, the “Depression, treatment-related AE” value (100 mg (n = 3)) was 33.3%, the “Diarrhoea, treatment-related AE” value (100 mg (n = 3)) was 33.3% and the “Dizziness, treatment-related AE” value (100 mg (n = 3)) was 0%. The “Dry skin, treatment-related AE” value (100 mg (n = 3)) was 33.3%, the “Dysgeusia, treatment-related AE” value (100 mg (n = 3)) was 0% and the “Erythematous rash, treatment-related AE” value (100 mg (n = 3)) was 0%. For the same molecule, the “Fatigue, treatment-related AE” value (100 mg (n = 3)) was 66.7%, the “Increased blood alkaline phosphatase” value (100 mg (n = 3)) was 0% and the “Maculopapular rash, treatment-related AE” value (100 mg (n = 3)) was 33.3%. For the same molecule, the “Nausea, treatment-related AE” value (100 mg (n = 3)) was 33.3%, the “Onycholysis, treatment-related AE” value (100 mg (n = 3)) was 0% and the “Periorbital oedema, treatment-related AE” value (100 mg (n = 3)) was 0%. For the same molecule, the “Photosensitivity reaction” value (100 mg (n = 3)) was 33.3%, the “Pruritus, treatment-related AE” value (100 mg (n = 3)) was 33.3% and the “Skin hyperpigmentation” value (100 mg (n = 3)) was 33.3%. For the same molecule, the “Vomiting, treatment-related AE” value (100 mg (n = 3)) was 0%, the “Patients with dose-limiting toxicity, n (%)” value (100 mg cohort, 3 evaluable) was 0 n (%) and the “Abdominal pain, treatment-related AE” value (200 mg (n = 4)) was 0%. The “Anaemia, treatment-related AE” value (200 mg (n = 4)) was 0%, the “Chromaturia, treatment-related AE” value (200 mg (n = 4)) was 0% and the “Constipation, treatment-related AE” value (200 mg (n = 4)) was 0%. The “Decreased appetite, treatment-related AE” value (200 mg (n = 4)) was 0%, the “Depression, treatment-related AE” value (200 mg (n = 4)) was 25.0% and the “Diarrhoea, treatment-related AE” value (200 mg (n = 4)) was 0%. For the same molecule, the “Dizziness, treatment-related AE” value (200 mg (n = 4)) was 0%, the “Dry skin, treatment-related AE” value (200 mg (n = 4)) was 0% and the “Dysgeusia, treatment-related AE” value (200 mg (n = 4)) was 0%. For the same molecule, the “Erythematous rash, treatment-related AE” value (200 mg (n = 4)) was 0%, the “Fatigue, treatment-related AE” value (200 mg (n = 4)) was 0% and the “Increased blood alkaline phosphatase” value (200 mg (n = 4)) was 0%. The “Maculopapular rash, treatment-related AE” value (200 mg (n = 4)) was 25.0%, the “Nausea, treatment-related AE” value (200 mg (n = 4)) was 50.0% and the “Onycholysis, treatment-related AE” value (200 mg (n = 4)) was 0%. For the same molecule, the “Periorbital oedema, treatment-related AE” value (200 mg (n = 4)) was 0%, the “Photosensitivity reaction” value (200 mg (n = 4)) was 0% and the “Pruritus, treatment-related AE” value (200 mg (n = 4)) was 0%. The “Skin hyperpigmentation” value (200 mg (n = 4)) was 0%, the “Vomiting, treatment-related AE” value (200 mg (n = 4)) was 25.0% and the “Patients with dose-limiting toxicity, n (%)” value (200 mg cohort, 4 evaluable) was 0 n (%). The “Abdominal pain, treatment-related AE” value (400 mg (n = 4)) was 25.0%, the “Anaemia, treatment-related AE” value (400 mg (n = 4)) was 0% and the “Chromaturia, treatment-related AE” value (400 mg (n = 4)) was 50.0%. For the same molecule, the “Constipation, treatment-related AE” value (400 mg (n = 4)) was 0%, the “Decreased appetite, treatment-related AE” value (400 mg (n = 4)) was 25.0% and the “Depression, treatment-related AE” value (400 mg (n = 4)) was 50.0%. For the same molecule, the “Diarrhoea, treatment-related AE” value (400 mg (n = 4)) was 50.0%, the “Dizziness, treatment-related AE” value (400 mg (n = 4)) was 0% and the “Dry skin, treatment-related AE” value (400 mg (n = 4)) was 0%. The “Dysgeusia, treatment-related AE” value (400 mg (n = 4)) was 0%, the “Erythematous rash, treatment-related AE” value (400 mg (n = 4)) was 0% and the “Fatigue, treatment-related AE” value (400 mg (n = 4)) was 75.0%. For the same molecule, the “Increased blood alkaline phosphatase” value (400 mg (n = 4)) was 25.0%, the “Maculopapular rash, treatment-related AE” value (400 mg (n = 4)) was 25.0% and the “Nausea, treatment-related AE” value (400 mg (n = 4)) was 25.0%. The “Onycholysis, treatment-related AE” value (400 mg (n = 4)) was 25.0%, the “Periorbital oedema, treatment-related AE” value (400 mg (n = 4)) was 25.0% and the “Photosensitivity reaction” value (400 mg (n = 4)) was 25.0%. For the same molecule, the “Pruritus, treatment-related AE” value (400 mg (n = 4)) was 0% and the “Skin hyperpigmentation” value (400 mg (n = 4)) was 0%.
